The values that follow come from US12582604B2, “Stable solid dispersion of a B-RAF kinase dimer inhibitor, methods of preparation, and uses therefor” (BEIGENE, LTD., priority 2019, dated 2026).

In brackets after ≈: the same amount, converted by molar mass. Entries after “also recorded” stand apart in the source; their conditions may differ.

For orientation: bioavailability means dose-corrected exposure relative to a reference, in per cent. Low values mean little systemic uptake, high ones much systemic uptake. As a reminder, the AUC(0-t) is the area under the concentration-time curve up to a stated or last time point. Low readings indicate less exposure, high ones more exposure. One may read the clearance as a measure of how efficiently the substance is removed, as volume per time. The Cmax is the maximum level reached in the sampled fluid or tissue. Broadly, the solubility is how much of the substance goes into solution per volume.

Data set [1] in a line: Solubility measurement (shaking 200 rpm at 25° C., HPLC). The class given is physicochemical.
Data set [2] concerns RAF family of serine/threonine kinases. The conditions noted are these: especially against BRAF/CRAF dimers; cited from earlier work.
Data set [3] can be described thus: Long-term and accelerated stability studies (impurities, optical purity, XRPD, water content). The format is physicochemical. The conditions noted are these: for Total impurities T0: initial.
The nature of data set [4]: Hygroscopicity by dynamic vapor sorption (DVS). The class given is physicochemical. The conditions noted are these: for Hygroscopicity (in words): DVS, 80% RH.
Data set [5] is described as follows: Pharmacokinetic comparison of Forms A-H in rats (Example 14). The class given is in vivo. The conditions noted are these: rat, plasma.
Data set [6] is described as follows: Pharmacokinetic comparison of Form A and Form F in dogs (Example 15). The conditions noted are these: for half-life: read-out: T½ (converted). The class given is in vivo, Beagle dogs. Here is the method:
Pharmacokinetic Comparison of Form A and Form F in Dogs
(§1) Powder of Form A with particle sizes of D90=62.4 μm after micronization. The material content (purity) was not less than 98.0%.
Powder of Form F with particle sizes of D90<200 μm after micronization. The material content (purity) was not less than 98.0%.
Beagle dogs, male and female, were used in this study.
An appropriate amount of each substance was weighed and was disperse in 0.5% sodium carboxymethyl cellulose. A suspension was prepared at the desired concentration of Compound 1 for each substance. All the doses and concentrations of Compound 1 were calculated with freebase in this study.
(§2) The dosing solutions were freshly prepared prior to dose administration. The actual body weights and actual volume injected were recorded accordingly. The dogs were fasted overnight and were allowed to intake food four hours after dosing. Each suspension was administrated orally to dogs at a dose ranged from 0.5 to 5 mg/kg. Blood samples (˜1.0 mL) were collected at pre-dose and at different times up to 36 hours post-dosing via cephalic vein plexus. Whole blood was processed by centrifugation and plasma samples were collected and kept at freezer prior to analysis. Plasma samples were processed by protein precipitation. Concentrations of Compound 1 in the plasma samples were determined using a validated liquid chromatography-tandem mass spectrometry (LC-MS/MS) method. The plasma concentration-time data were analyzed using a non-compartmental model using Pharsight WinNonlin.

Data set [7] is described as follows: Pharmacokinetic comparison of Forms A-H in rats (Example 14). The format is in vivo.
Description: Pharmacokinetic Comparison of Form a, B, C, D, E, F, G and H in Rats
as §1
Powder of Form B with particle sizes of D90=69.9 μm, D10=3.5 um, […] after micronization. The material content (purity) was not less than 98.0%.
Powders of Forms C, D, E, F, G and H with particle sizes of D90<600 μm after micronization. The material content (purity) was not less than 98.0%.
Rats, male and female, were used in this study.
An appropriate amount of each substance was weighted and was dispersed in 0.5% sodium carboxymethyl cellulose. A suspension was prepared at the desired concentration of Compound 1 for each substance. All the doses and concentrations of Compound 1 were calculated with freebase in this study.
as §2, with “rats” for “dogs”

A short description of data set [8]: Long-term and accelerated stability studies (impurities, optical purity, XRPD, water content). The format is physicochemical. As to the method:
Chiral purity and polymorph results had no changes when stored at 25° C./60% RH for up to 24 months.

Where [9] appears, read: both sexes, beagle, dog, plasma, 0.5 mg/kg, 0.5 mpk IV.
Where [10] appears, read: both sexes, beagle, dog, plasma, 5 mg/kg, 5 mpk PO.
The mark [11] stands for this setting: 25° C./60% RH up to 24 months and 40° C./75% RH up to 6 months.
[12] abbreviates: both sexes, iv, 1 mg/kg, 1 mpk IV.

`O=C1CCc2c(Oc3ccc4c(c3)[C@H]3[C@H](NC(=O)Nc5cc(F)c(F)cc5F)[C@H]3O4)ccnc2N1` [Compound 1, 1-((1S,1aS,6bS)-5-((7-oxo-5,6,7,8-tetrahydro-1,8-naphthyridin-4-yl)oxy)-1a,6b-dihydro-1H-cyclopropa[b]benzofuran-1-yl)-3-(2,4,5-trifluorophenyl)urea]: the “Solubility (in words)” value in data set [1] (crystalline or neat amorphous form, water, 0.1 HCl, buffer solutions of different pH) is listed as “poor solubility”. The “Inhibitory activity (in words)” value in data set [2] was “potent inhibitory activity”. Also, the Chemical purity change result in data set [3] (crystalline form, 25° C./60% RH up to 12 months) was “does not show any significant chemical purity change”. Further, in data set [3] (crystalline form, 25° C./60% RH up to 12 months and 40° C./75% RH up to 6 months), the Optical purity change result is reported as “no optical purity changes”. Also, the “Weight gain (water gain) by DVS” value in data set [4] (80% relative humidity) is 4.96%. Moreover, the “Hygroscopicity (in words)” value in data set [4] is “moderately hygroscopic”. The bioavailability in data set [5] (po, 5 mpk, crystalline form, preliminary DMPK studies) was around 20%.
For the compound `O=C1CCc2c(Oc3ccc4c(c3)[C@H]3[C@H](NC(=O)Nc5cc(F)c(F)cc5F)[C@H]3O4)ccnc2N1` [Form A, 1-((1S,1aS,6bS)-5-((7-oxo-5,6,7,8-tetrahydro-1,8-naphthyridin-4-yl)oxy)-1a,6b-dihydro-1H-cyclopropa[b]benzofuran-1-yl)-3-(2,4,5-trifluorophenyl)urea], the F in data set [6] (0.5 mpk IV (reference)) was 100%; in data set [6] (5 mpk PO), 34%; in data set [7] (1 mpk IV (reference)), 100%. The AUC(0-t) came to 6870 ng·h/mL in data set [6] (setting [9]); 23400 ng·h/mL in data set [6] (setting [10]); 5716 ng·h/mL in data set [7] (5 mpk PO, 5 mg/kg); 5330 ng·h/mL in data set [5] (setting [12]). Moreover, the clearance in data set [6] (setting [9]) amounted to 1.22 mL/min/kg; in data set [5] (both sexes, 1 mg/kg, 1 mpk IV) it was 3.15 mL/min/kg. Also, the half-life is 11 h in data set [6] (setting [9]); 11 h in data set [6] (setting [10]); 2.94 h in data set [7] (both sexes, rat, plasma, po, 5 mg/kg, 5 mpk PO); 4.2 h in data set [5] (setting [12]). Moreover, the Vd in data set [6] (both sexes, beagle, dog, plasma, 0.5 mg/kg, 0.5 mpk IV, read-out: Vdss) amounted to 0.97 L/kg; in data set [5] (both sexes, 1 mg/kg, 1 mpk IV, read-out: Vdss) it was 1.15 L/kg. The same compound yielded a Cmax in data set [6] (setting [10]) of 1120 ng/mL. Besides, the solubility in data set [1] (0.1N HCl, simulated gastric fluid) is 20 µg/mL (≈ 41.5 µM); in data set [1] (5% HTAB, aqueous with cosolvent or surfactant or cyclodextrin), 960 µg/mL (≈ 1990 µM); in data set [1] (5% Pluronic F68, aqueous with cosolvent or surfactant or cyclodextrin), below 0.1 µg/mL; in data set [1] (5% SLS, aqueous with cosolvent or surfactant or cyclodextrin), 1000 µg/mL (≈ 2070 µM); in data set [1] (20% hydroxypropyl-β-cyclodextrin (HP-β-CD), aqueous with cosolvent or surfactant or cyclodextrin), 550 µg/mL (≈ 1140 µM); in data set [1] (20% sulfobutyl ether-β-cyclodextrin (SBE-β-CD), aqueous with cosolvent or surfactant or cyclodextrin) it was 550 µg/mL (≈ 1140 µM). The solubility in data set [1] (n-heptane, organic solvent or mixture) is below 0.1 µg/mL; in data set [1] (pH 1.2 buffer solution, pH 1.2, simulated gastric fluid) it was 15 µg/mL (≈ 31.1 µM); in data set [1] (pH 4.5 buffer, pH 4.5, aqueous buffer), below 0.1 µg/mL; in data set [1] (pH 6.8 buffer, pH 6.8, aqueous buffer), below 0.1 µg/mL; in data set [1] (pH 7.4 buffer solution, pH 7.4, aqueous buffer) it was below 0.1 µg/mL; in data set [1] (water) it was below 0.1 µg/mL. For the same compound, the solubility at 2 h was above 372000 µg/mL in data set [1] (DMA, organic solvent or mixture) and above 95400 µg/mL in data set [1] (DMSO, organic solvent or mixture). The “Storage time without obvious decomposition” value in data set [3] is “over 12 months”. The “Total impurities T0” value in data set [3] (25° C./60% RH study) and in data set [3] (40° C./75% RH study) was 1.0% each time. Further, the Chemical purity change result in data set [3] (setting [11]) is on record as “no significant chemical purity change”. Besides, the “Crystalline form change by XRPD” value in data set [3] (25° C./60% RH, 12 months) is listed as “changed to the crystalline form; also recorded: from Form A to Form A*”. Moreover, the “Total impurities T24” value in data set [3] (25° C./60% RH, 24 months) is given as 1.0%. Besides, the “Time at which solid form is still stable by XRPD” value in data set [3] (40° C./75% RH) and in data set [8] (25° C./60% RH) was at least 6 months throughout. Also, in data set [3] (40° C./75% RH, 6 months), the “Total impurities T6” value worked out at 1.0%. Besides, in data set [4], the “Hygroscopicity (in words)” value is given as “moderately hygroscopic”. In data set [4] (after dynamic vapor sorption), the “Crystalline form after DVS” value is “changed to the Crystalline Form A*”. Also, the Optical purity change entry in data set [8] (setting [11]) is listed as “no optical purity changes”.
Regarding `O=C1CCc2c(Oc3ccc4c(c3)[C@H]3[C@H](NC(=O)Nc5cc(F)c(F)cc5F)[C@H]3O4)ccnc2N1` [Form B, 1-((1S,1aS,6bS)-5-((7-oxo-5,6,7,8-tetrahydro-1,8-naphthyridin-4-yl)oxy)-1a,6b-dihydro-1H-cyclopropa[b]benzofuran-1-yl)-3-(2,4,5-trifluorophenyl)urea], the “Time at which solid form is still stable by XRPD (no crystalline peaks)” value in data set [3] (40° C./75% RH) was at least 14 days. Further, in data set [7] (5 mpk PO, 5 mg/kg), the exposure AUC(0-t) was 13134 ng·h/mL and the T1/2 was determined as 2.47 h. Besides, in data set [7] (PO), the “Cmax and AUC0-inf compared with the amorphous solid dispersions (in words)” value is on record as “lower”; the “Cmax, AUC0-inf and F(%) compared to crystalline Form A (in words)” value was “higher”.
Consider `O=C1CCc2c(Oc3ccc4c(c3)[C@H]3[C@H](NC(=O)N[C@@H]5[C@H]6Oc7ccc(Oc8ccnc9c8CCC(=O)N9)cc7[C@@H]56)[C@H]3O4)ccnc2N1` [Impurity-1], for which, in data set [1] (water and other common recrystallization solvents), the “Solubility (in words)” value is reported as “very low solubilities”.
